# Measured values reported in US11045435B2, “Methods for treating ocular diseases” (NATUREWISE BIOTECH & MEDICALS CORPORATION, priority 2016, dated 2021).
# Columns and labels:
# Type in all cases: cell-based, human
# ARPE-19 cells [1] = experiment: MTT viability / proliferation of ARPE-19 cells; conditions: 72 h
# Method: (§1) ARPE-19 cells were grown in DMEM/F12 medium supplemented with 10% FBS, 100 units/ml penicillin G, and 100 μg/ml streptomycin sulfate. HUVECs were grown in vascular cell basal medium supplemented with endothelial cell growth kit. Cells were incubated in a humidified incubator at 37° C. under 5% CO2 and 95% air.
# (§2) MTT assay was used to measure the viability of ARPE-19 cells and HUVECs. 2×10^5 ARPE-19 cells or 5×10^4 HUVECs were seeded in 96-well plates ([…]) and allowed to grow overnight. Negative control was prepared by adding 100 μl medium without cells. The cells were then treated with fresh medium with COMPOUND I (0.03, 0.1, 0.3, 1, 3 and 10 μg/ml) and/or oxidants (NaIO3, H2O2, t-BHP and NaN3) for 12, 24, or 72 hours (200 μl/well). The vehicle control group was treated with vehicle. 20 μl MTT (5 mg/ml) was added to wells, and incubated for another 4 h. After incubation, the medium was discarded and 100 μl DMSO was added to solubilize formazan produced from MTT by the viable cells. Absorbance was measured at 570 nm using a microplate reader (Bio-Rad Laboratories, Inc., CA). Cells viability was calculated according to the following formula: Viability of cells (%)=(absorbance in tested sample−absorbance in negative control)/(absorbance in vehicle control−absorbance in negative control)×100%.
# HUVECs [2] = experiment: MTT viability / proliferation of HUVECs; conditions: 72 h
# Method: as §1, §2
# HUVECs [3] = experiment: NaIO3-induced injury in HUVECs (MTT); conditions: 72 h
# Method: as §2
# ARPE-19 cells [4] = experiment: H2O2-induced injury in ARPE-19 cells (MTT); conditions: 3 μg/ml and 10 μg/ml; 400, M and 600 μM H2O2; 24 h
# Method: as §2
# ARPE-19 cells [5] = experiment: NaN3-induced injury in ARPE-19 cells (MTT); conditions: 72 h
# Method: as §2
# ARPE-19 cells [6] = experiment: t-BHP-induced injury in ARPE-19 cells (MTT); conditions: 0.03 μg/ml to 10 µg/ml, 12 h
# Method: as §2
# HUVECs [7] = experiment: t-BHP-induced injury in HUVECs (MTT); conditions: 12 h; for reversal of t-BHP-induced injury: 200 I-M t-BHP; for enhancement of t-BHP-induced injury: 10 μg/ml
# Method: as §2
structure (smiles),measurement,setting,value
COc1ccc(COc2c(/C=C/C(=O)NO)ccc(OC)c2CC=C(C)C)cc1 [COMPOUND I],effect on cell growth,ARPE-19 cells [1]; 0.03 μg/ml to 1 μg/ml,did not affect cell growth
same,inhibition at 10 µg/mL,"ARPE-19 cells [1]; Homo sapiens, ARPE-19, 10 μg/ml",36%
same,effect on cell growth,HUVECs [2]; 0.03 μg/ml to 1 μg/ml,did not affect cell growth
same,inhibition at 10 µg/mL,"HUVECs [2]; Homo sapiens, HUVEC, 10 μg/ml",47%
same,effect on 300 μg/ml NaIO3-induced injury,"HUVECs [3]; 0.03 μg/ml to 1 μg/ml, 300 μg/ml NaIO3",reversed
same,effect on viability in NaIO3-induced injury,HUVECs [3]; 10 μg/ml,significantly enhanced the viability
same,effect on H2O2-induced injuries,ARPE-19 cells [4],reversed
same,effect on NaN3-induced injury,ARPE-19 cells [5],significantly reversed
same,effect on 200 μM t-BHP-induced injury,ARPE-19 cells [6],reversed
same,reversal of t-BHP-induced injury,HUVECs [7]; 1 μg/ml,26%
same,reversal of t-BHP-induced injury,HUVECs [7]; 3 μg/ml,28%
same,enhancement of t-BHP-induced injury,HUVECs [7]; 50 μM t-BHP,40%
same,enhancement of t-BHP-induced injury,HUVECs [7]; 100 μM t-BHP,20%
same,enhancement of t-BHP-induced injury,HUVECs [7]; 200 μM t-BHP,51%
